Columns and labels:
Format in all cases: in vivo, Lewis rats
[1] = test system: sciatic nerve crush injury; test: Collagen sheet covering 5 mm to 15 mm distal to injury site, evaluation 7 days after crush injury (axonal regeneration); conditions: sheet with 500 μg inhibitor in 50 μl 1% DMSO, placed 2 hours; 7 days after injury; vs control sheet; n=1; FIG. 37
Text: Anesthetized Lewis rats (males, 12-16 weeks old) or C57BL/6 mice (males, 8-10 weeks old) were placed in the prone position and a longitudinal skin incision was made from the left buttock to the distal left thigh to expose the entire sciatic nerve. […] An 8-0 Nylon thread was applied to the epineurium at the crush injury for marking, and the incision was closed.
(§1) After a predetermined time had elapsed from the creation of the crush injury, the right atrial appendage of the animals was incised under anesthesia to release the blood, and a PBS solution was poured into the left heart to remove the blood. After transcardial perfusion and fixation with 4% paraformaldehyde-added PBS, the sciatic nerve was collected.
(§2) Sciatic nerves collected from animals were fixed in 4% PFA at 4° C. overnight and then transferred to 30% Sucrose/PB solution and allowed to stand for 24 hours or longer. Longitudinal sciatic nerve sections of 10 μm thickness, or in the case of mice, transverse sections at predetermined locations, were prepared using a cryostat. The sections were blocked in TBS (pH 8.4) containing 5% Normal horse serum (Thermo Fisher Scientific, Waltham, MA) and 0.25% Triton X-100 (Sigma-Aldrich, St. Louis, MO) for 1 hour, and then immersed in TBS containing primary antibody at 4° C. overnight and in TBS containing secondary antibody at room temperature for 1 hour for staining. After washing with TBS, counterstaining was performed with DAPI. After staining, tissues were observed using a fluorescence microscope BZ-X710 (KEYENCE).
(§3) In β3 tubulin-immunostained images of longitudinal sciatic nerve sections, vertical lines were set at 5 mm intervals in the direction distal to the injury site, and the number of axons crossing each line was divided by the length of the line to calculate axon density. The axonal regeneration percentage was calculated by dividing the axon density at each location by the axon density at uninjured site 1.5 mm proximal to the injury site.
Crush injuries were created in the sciatic nerve of rats. […] […] Seven days after injury creation, the sciatic nerves were collected, and immunohistochemical staining of their longitudinal sections was performed to calculate the axonal regeneration percentage.

[2] = test system: sciatic nerve crush injury; test: Collagen sheet covering 15 mm to 25 mm distal to injury site, evaluation 12 hours after crush injury (NETs, macrophages); conditions: n=3; for NETs in the epineurium (CitH3 positive area) / macrophages accumulated in the nerve parenchyma: 20 mm distal
Text: (§4) Anesthetized Lewis rats (males, 12-16 weeks old) or C57BL/6 mice (males, 8-10 weeks old) were placed in the prone position and a longitudinal skin incision was made from the left buttock to the distal left thigh to expose the entire sciatic nerve. Crush injuries were created with micro mosquito forceps (Fine Science Tools, No. 13010-12). An 8-0 Nylon thread was applied to the epineurium at the crush injury for marking, and the incision was closed.
as §1
as §2, with “(KEYENCE). Image analysis was performed using Image J (Schneider et al., 2012).” for “(KEYENCE).”
Crush injuries were created in the sciatic nerve of rats. Ten hours after injury creation, the sciatic nerves from 15 mm to 25 mm distal to the injury site were wrapped with the collagen-based artificial skin PELNAC (registered trademark) (Smith & Nephew; hereafter also referred to as sheets or collagen sheets) impregnated with either 50 μl of PBS containing 0.3 mg of the PAD4 inhibitor Cl-amidine (Cayman CHEMICAL #10599), 50 μl of PBS containing 200 U of DNase I (Nippon Gene #314-08071), or 50 μl of PBS (control). The sheets were suture-fixed with 8-0 nylon and placed for 2 hours (n=3 in each group). Twelve hours after injury creation, the sciatic nerves were collected, their longitudinal sections at 20 mm distal to the injury site were prepared and immunohistochemical staining for CitH3, Ly-6G, and CD68 was performed. The epineural area was observed and the percentage of area stained for CitH3 in the total area of the field of view was calculated. The number of macrophages per unit area of the nerve parenchyma was quantified.
Crush injuries were created in the sciatic nerve of rats. Ten hours after injury creation, the sciatic nerves from 15 mm to 25 mm distal to the injury site were wrapped with collagen sheets impregnated with either 50 μl of 1% DMSO containing 500 μg of the MIF inhibitor iso-1 (Abcam, Cat ab142140), or 50 μl of 1% DMSO. The sheets were suture-fixed with 8-0 nylon and placed for 2 hours (n=3 in each group). Twelve hours after injury creation, the sciatic nerves were collected, their longitudinal sections were prepared, and immunohistochemical staining for CitH3, Ly-6G, and CD68 was performed. The epineural area was observed and the percentage of area stained for CitH3 in the total area of the field of view was calculated. The number of macrophages per unit area of the nerve parenchyma was quantified.
Crush injuries were created in the sciatic nerve of rats. Ten hours after injury creation, the sciatic nerves from 15 mm to 25 mm distal to the injury site were wrapped with collagen sheets impregnated with either 50 μl of PBS containing 500 μg of the CXCR4 inhibitor AMD3100 (Abcam #10599), or 50 μl of PBS. The sheets were suture-fixed with 8-0 nylon and placed for 2 hours (n=3 in each group).

[3] = test system: sciatic nerve crush injury; test: Collagen sheet covering 5 mm to 25 mm distal to injury site, evaluation 7 days after crush injury (macrophages, axonal regeneration); conditions: placed 2 hours, 7 days after injury, vs control sheet
Text: as §4, §1
as §2, with “(KEYENCE). Image analysis was performed using Image J (Schneider et al., 2012).” for “(KEYENCE).”
as §3
(§5) Crush injuries were created in the sciatic nerve of rats.
Crush injuries were created in the sciatic nerve of rats. […] The sheets were removed 12 hours after injury creation and the incisions were closed after washing.
as §5

In the case of O=C(O)CC1CC(c2ccc(O)cc2)=NO1 (racemic) [iso-1, (S,R)-3-(4-Hydroxyphenyl)-4,5-dihydro-5-isoxazole acetic acid], the axonal regeneration percentage [1] was “higher axonal regeneration percentage”, the longest axon length [1] was “greater longest axon length” and the “NETs in the epineurium at 20 mm distal to the injury site (CitH3 positive area)” value ([2]; sheet with 500 μg iso-1 in 50 μl 1% DMSO, placed 2 hours, 12 hours after injury, FIG. 32) was “only a small amount of NETs were detected”. The “macrophage accumulation at 5 mm distal to the injury site (no sheet treatment there)” value ([2]; sheet with 500 μg iso-1 in 50 μl 1% DMSO, placed 2 hours, 12 hours after injury, vs control sheet, FIG. 30) was “no difference in macrophage accumulation”, the “macrophages accumulated in the nerve parenchyma at 20 mm distal to the injury site (sheet-treated)” value ([2]; sheet with 500 μg iso-1 in 50 μl 1% DMSO, placed 2 hours, 12 hours after injury, vs control sheet, FIG. 31) was “more macrophages accumulated in the nerve parenchyma” and the axonal regeneration percentage ([3]; sheet with 1000 μg iso-1 in 100 μl 1% DMSO, over almost the entire evaluated regions, n=3, FIG. 35) was “higher axonal regeneration percentage”. For the same molecule, the “accumulation of macrophages in the nerve parenchyma (CD68; M2 macrophages CD163)” value ([3]; sheet with 1000 μg iso-1 in 100 μl 1% DMSO, over the entire evaluated regions, n=3, FIG. 33, 34) was “greater accumulation of macrophages in the nerve parenchyma”.
With c1cc(CN2CCCNCCNCCCNCC2)ccc1CN1CCCNCCNCCCNCC1 [AMD3100, 1,4-Bis[(1,4,8,11-tetraazacyclotetradecan-1-yl)methyl]benzene] the “NETs in the epineurium (CitH3 positive area)” value ([2]; sheet with 500 μg AMD3100 in 50 μl PBS, placed 2 hours, 12 hours after injury, FIG. 39) was “only a small amount of NETs were detected”, the “macrophages accumulated in the nerve parenchyma” value ([2]; sheet with 500 μg AMD3100 in 50 μl PBS, placed 2 hours, 12 hours after injury, vs control sheet, FIG. 40) was “more macrophages accumulated in the nerve parenchyma” and the “macrophages accumulated in the nerve parenchyma” value ([3]; sheet with 1 mg AMD3100 in 100 μl PBS, over almost the entire evaluated regions, n=1, FIG. 42) was “more macrophages accumulated in the nerve parenchyma”. For the same molecule, the axonal regeneration percentage ([3]; sheet with 1 mg AMD3100 in 100 μl PBS, n=1, FIG. 41) was “higher axonal regeneration percentage”.
In the case of O=C(CC1CC(c2ccc(F)cc2F)=NO1)N1CCOCC1 (stereo not drawn) [CPSI-1306], the axonal regeneration percentage [1] was “higher axonal regeneration percentage” and the longest axon length [1] was “greater longest axon length”.
For N=C(CCl)NCCC[C@H](NC(=O)c1ccccc1)C(N)=O.O=C(O)C(F)(F)F [Cl-amidine, N^2-Benzoyl-N^5-(1-imino-2-chloroethyl)-L-ornithinamide trifluoroacetic acid], the “NETs in the epineurium (CitH3 positive area)” value ([2]; sheet with 0.3 mg Cl-amidine or 200 U DNase I in 50 μl PBS, placed 2 hours from 10 hours after injury, 12 hours, vs control sheet (large amount), FIG. 25) was “only a small amount of NETs were detected” and the “macrophages accumulated in the nerve parenchyma” value ([2]; sheet with 0.3 mg Cl-amidine or 200 U DNase I, placed 2 hours, 12 hours, CD68, vs control sheet, FIG. 26) was “more macrophages accumulated in the nerve parenchyma”.

From patent US20250074976A1, “PHARMACEUTICAL COMPOSITION FOR TREATING PERIPHERAL NERVE INJURY” (NATIONAL UNIVERSITY CORPORATION HOKKAIDO UNIVERSITY, priority 2021, published 2025)
